Measurements reported in the NIST ThermoML archive (doi:10.1021/acs.jced.7b00106).
Numbers after ± are expanded uncertainties.

Conditions: Liquid, Hot wire method

FC(F)(F)/C=C/Cl [(E)-1-chloro-3,3,3-trifluoroprop-1-ene]
Conditions	thermal conductivity [W/m/K]
263.11 K, 10284 kPa	0.09779 ± 0.0036
263.11 K, 15941 kPa	0.1 ± 0.0031
263.12 K, 275 kPa	0.09368 ± 0.0028
263.12 K, 5037 kPa	0.09578 ± 0.0032
263.3 K, 65213 kPa	0.1155 ± 0.0043
263.31 K, 42853 kPa	0.1092 ± 0.0037
263.34 K, 36413 kPa	0.1071 ± 0.0032
263.35 K, 59142 kPa	0.1143 ± 0.0054
263.39 K, 51112 kPa	0.1115 ± 0.0034
263.4 K, 29224 kPa	0.1049 ± 0.0032
263.45 K, 22281 kPa	0.1026 ± 0.0034
263.48 K, 65190 kPa	0.115 ± 0.0043
263.49 K, 15926 kPa	0.1002 ± 0.0047
263.5 K, 10264 kPa	0.0981 ± 0.0046
263.5 K, 42848 kPa	0.1085 ± 0.0034
263.52 K, 5059 kPa	0.09603 ± 0.0038
263.53 K, 267 kPa	0.09392 ± 0.0032
263.53 K, 36413 kPa	0.1068 ± 0.0034
263.54 K, 59138 kPa	0.1137 ± 0.0039
263.58 K, 51103 kPa	0.1112 ± 0.0038
263.59 K, 29225 kPa	0.1044 ± 0.0032
263.64 K, 22275 kPa	0.1022 ± 0.0039
263.7 K, 15944 kPa	0.09988 ± 0.0034
263.71 K, 10281 kPa	0.09774 ± 0.003
263.73 K, 5041 kPa	0.09557 ± 0.0033
263.75 K, 278 kPa	0.09344 ± 0.0035
263.84 K, 65191 kPa	0.1154 ± 0.0036
263.88 K, 42851 kPa	0.1087 ± 0.0035
263.91 K, 36412 kPa	0.1071 ± 0.0036
263.95 K, 51092 kPa	0.1113 ± 0.0042
263.98 K, 29226 kPa	0.1045 ± 0.004
264.05 K, 65174 kPa	0.1149 ± 0.0038
264.1 K, 42852 kPa	0.1085 ± 0.0033
264.11 K, 59122 kPa	0.1132 ± 0.0058
264.13 K, 36411 kPa	0.1066 ± 0.0043
264.17 K, 51091 kPa	0.1108 ± 0.0044
264.21 K, 29227 kPa	0.1042 ± 0.0038
281.25 K, 20968 kPa	0.09541 ± 0.022
281.29 K, 10961 kPa	0.09337 ± 0.0087
281.3 K, 3101 kPa	0.08933 ± 0.003
281.3 K, 6243 kPa	0.09051 ± 0.0061
281.31 K, 203 kPa	0.08831 ± 0.0064
281.31 K, 16036 kPa	0.09555 ± 0.0064
281.32 K, 20959 kPa	0.09554 ± 0.0041
281.36 K, 10962 kPa	0.09248 ± 0.0068
281.38 K, 3093 kPa	0.0889 ± 0.0029
281.38 K, 6225 kPa	0.09019 ± 0.0045
281.39 K, 193 kPa	0.08772 ± 0.0054
281.61 K, 39518 kPa	0.1031 ± 0.0039
281.62 K, 46215 kPa	0.1057 ± 0.0032
281.62 K, 55364 kPa	0.1084 ± 0.0033
281.64 K, 16024 kPa	0.09394 ± 0.0069
281.64 K, 33249 kPa	0.1009 ± 0.0057
281.64 K, 64739 kPa	0.1107 ± 0.0045
281.65 K, 20972 kPa	0.09689 ± 0.0067
281.65 K, 27078 kPa	0.0987 ± 0.0031
281.7 K, 10959 kPa	0.09251 ± 0.0069
281.71 K, 39517 kPa	0.103 ± 0.0041
281.71 K, 55366 kPa	0.1082 ± 0.004
281.72 K, 6236 kPa	0.09039 ± 0.0029
281.72 K, 46217 kPa	0.1053 ± 0.0033
281.73 K, 3096 kPa	0.08936 ± 0.0039
281.73 K, 33252 kPa	0.1011 ± 0.0032
281.73 K, 64721 kPa	0.1106 ± 0.0042
281.74 K, 201 kPa	0.08787 ± 0.0061
281.75 K, 16022 kPa	0.09421 ± 0.0077
281.75 K, 20962 kPa	0.09616 ± 0.0055
281.75 K, 27071 kPa	0.09865 ± 0.0038
281.8 K, 10956 kPa	0.0923 ± 0.0029
281.83 K, 6219 kPa	0.09017 ± 0.0027
281.85 K, 185 kPa	0.08733 ± 0.0031
281.85 K, 3101 kPa	0.08903 ± 0.0037
282.03 K, 55362 kPa	0.1085 ± 0.0044
282.04 K, 64705 kPa	0.1107 ± 0.0034
282.05 K, 39515 kPa	0.1034 ± 0.0032
282.05 K, 46209 kPa	0.1055 ± 0.0038
282.08 K, 33242 kPa	0.1012 ± 0.0031
282.1 K, 27075 kPa	0.09876 ± 0.003
282.11 K, 16012 kPa	0.09449 ± 0.0041
282.11 K, 20964 kPa	0.09638 ± 0.0036
282.15 K, 46205 kPa	0.1054 ± 0.0038
282.15 K, 55358 kPa	0.108 ± 0.0044
282.15 K, 64700 kPa	0.1104 ± 0.0034
282.16 K, 39512 kPa	0.103 ± 0.0031
282.18 K, 10959 kPa	0.09237 ± 0.0029
282.2 K, 33255 kPa	0.101 ± 0.0031
282.21 K, 6234 kPa	0.09065 ± 0.0029
282.22 K, 3104 kPa	0.08891 ± 0.003
282.23 K, 27070 kPa	0.09861 ± 0.0031
282.24 K, 198 kPa	0.08741 ± 0.0029
282.24 K, 16024 kPa	0.0943 ± 0.0032
282.24 K, 20959 kPa	0.09631 ± 0.0037
282.31 K, 10962 kPa	0.09207 ± 0.0028
282.35 K, 6225 kPa	0.09024 ± 0.0028
282.37 K, 3126 kPa	0.08877 ± 0.0027
282.38 K, 188 kPa	0.08744 ± 0.0032
282.5 K, 55349 kPa	0.108 ± 0.0051
282.5 K, 64686 kPa	0.1105 ± 0.0035
282.52 K, 39509 kPa	0.103 ± 0.0034
282.52 K, 46199 kPa	0.1053 ± 0.0032
282.57 K, 33243 kPa	0.101 ± 0.0038
282.6 K, 27082 kPa	0.09879 ± 0.003
282.62 K, 16026 kPa	0.09446 ± 0.0029
282.62 K, 20964 kPa	0.09651 ± 0.003
282.63 K, 64675 kPa	0.1105 ± 0.0035
282.64 K, 55348 kPa	0.1078 ± 0.0035
282.67 K, 39508 kPa	0.103 ± 0.0032
282.67 K, 46193 kPa	0.105 ± 0.0034
282.71 K, 10958 kPa	0.09238 ± 0.0028
282.73 K, 33247 kPa	0.1009 ± 0.0032
282.75 K, 6236 kPa	0.09029 ± 0.0034
282.75 K, 27089 kPa	0.09858 ± 0.003
282.78 K, 3125 kPa	0.08898 ± 0.0028
282.78 K, 20962 kPa	0.09627 ± 0.0031
282.79 K, 16015 kPa	0.09427 ± 0.003
282.8 K, 194 kPa	0.08765 ± 0.0027
282.88 K, 10957 kPa	0.09201 ± 0.0028
282.92 K, 6218 kPa	0.09006 ± 0.0027
282.95 K, 3110 kPa	0.08875 ± 0.0028
282.97 K, 194 kPa	0.08733 ± 0.0028
282.99 K, 64664 kPa	0.1105 ± 0.0034
283 K, 55335 kPa	0.1078 ± 0.0033
283.04 K, 46194 kPa	0.1053 ± 0.0032
283.06 K, 39510 kPa	0.1032 ± 0.0031
283.12 K, 33245 kPa	0.1008 ± 0.0031
283.15 K, 64649 kPa	0.1103 ± 0.0033
283.16 K, 27095 kPa	0.09871 ± 0.003
283.18 K, 20963 kPa	0.09653 ± 0.0031
283.18 K, 55341 kPa	0.1078 ± 0.0034
283.21 K, 16028 kPa	0.09435 ± 0.0034
283.21 K, 46185 kPa	0.105 ± 0.0032
283.24 K, 39508 kPa	0.103 ± 0.0031
283.29 K, 10953 kPa	0.09216 ± 0.0028
283.29 K, 33245 kPa	0.1006 ± 0.0032
283.34 K, 27084 kPa	0.09839 ± 0.0034
283.35 K, 6234 kPa	0.09024 ± 0.0033
283.38 K, 3103 kPa	0.08892 ± 0.0028
283.38 K, 20960 kPa	0.09617 ± 0.0031
283.39 K, 16020 kPa	0.09411 ± 0.0032
283.42 K, 178 kPa	0.08755 ± 0.0027
283.5 K, 10953 kPa	0.09198 ± 0.0028
283.54 K, 64641 kPa	0.1105 ± 0.0035
283.55 K, 6234 kPa	0.08992 ± 0.003
283.57 K, 55328 kPa	0.108 ± 0.0033
283.59 K, 3103 kPa	0.08855 ± 0.0033
